Test results taken from PubChem BioAssay (NCI).
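Briefly, cells in 96-well plates were exposed to five compound concentrations for 48 h, and endpoints were estimated by linear interpolation. TGI: total growth inhibition.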

How the values were obtained:
Experiment in all cases: DTP human tumour cell line panel, 48 h
[1] = test system: 786-0 renal
[2] = test system: A498 renal
[3] = test system: A549 NSCLC
[4] = test system: BT-549 breast
[5] = test system: CAKI-1 renal
[6] = test system: CCRF-CEM leukemia
[7] = test system: COLO 205 colon
[8] = test system: DU-145 prostate
[9] = test system: EKVX NSCLC
[10] = test system: HCC-2998 colon
[11] = test system: HCT-116 colon
[12] = test system: HCT-15 colon
[13] = test system: HOP-62 NSCLC
[14] = test system: HOP-92 NSCLC
[15] = test system: HT29 colon
[16] = test system: IGROV1 ovarian
[17] = test system: K-562 leukemia
[18] = test system: KM12 colon
[19] = test system: LOX IMVI melanoma
[20] = test system: M14 melanoma
[21] = test system: MALME-3M melanoma
[22] = test system: MCF7 breast
[23] = test system: MDA-MB-231 breast
[24] = test system: MDA-MB-435
[25] = test system: MDA-N
[26] = test system: MOLT-4 leukemia
[27] = test system: NCI-H226 lung
[28] = test system: NCI-H23 lung
[29] = test system: NCI/ADR-RES ovarian
[30] = test system: OVCAR-3 ovarian
[31] = test system: OVCAR-4 ovarian
[32] = test system: OVCAR-5 ovarian
[33] = test system: OVCAR-8 ovarian
[34] = test system: PC-3 prostate
[35] = test system: RPMI-8226 leukemia
[36] = test system: RXF 393 renal
[37] = test system: SF-268 CNS
[38] = test system: SF-295 CNS
[39] = test system: SF-539 CNS
[40] = test system: SK-MEL-2 melanoma
[41] = test system: SK-MEL-28 melanoma
[42] = test system: SK-MEL-5 melanoma
[43] = test system: SK-OV-3 ovarian
[44] = test system: SN12C renal
[45] = test system: SNB-75 CNS
[46] = test system: SR leukemia
[47] = test system: SW-620 colon
[48] = test system: T-47D breast
[49] = test system: TK-10 renal
[50] = test system: U251 CNS
[51] = test system: UACC-257 melanoma
[52] = test system: UACC-62 melanoma
[53] = test system: ACHN renal
[54] = test system: HL-60(TB) leukemia
[55] = test system: NCI-H460 lung
[56] = test system: NCI-H522 lung
[57] = test system: SNB-19 CNS
[58] = test system: UO-31 renal

## Fc1cccc(F)c1C1SCc2nc3cc4ccccc4cc3n21 (centres undefined)
[1]
  TGI: > 100 µM
[2]
  TGI: 67.3 µM
[3]
  TGI: > 100 µM
[4]
  TGI: > 100 µM
[5]
  TGI: > 100 µM
[6]
  TGI: 62.4 µM
[7]
  TGI: > 100 µM
[8]
  TGI: > 100 µM
[9]
  TGI: > 100 µM
[10]
  TGI: 54.1 µM
[11]
  TGI: > 100 µM
[12]
  TGI: 55 µM
[13]
  TGI: > 100 µM
[14]
  TGI: 69.2 µM
[15]
  TGI: 80.3 µM
[16]
  TGI: 72.9 µM
[17]
  TGI: 48.6 µM
[18]
  TGI: > 100 µM
[19]
  TGI: > 100 µM
[20]
  TGI: > 100 µM
[21]
  TGI: > 100 µM
[22]
  TGI: > 100 µM
[23]
  TGI: > 100 µM
[24]
  TGI: > 100 µM
[25]
  TGI: > 100 µM
[26]
  TGI: 81.5 µM
[27]
  TGI: > 100 µM
[28]
  TGI: > 100 µM
[29]
  TGI: > 100 µM
[30]
  TGI: 36.6 µM
[31]
  TGI: 36.7 µM
[32]
  TGI: > 100 µM
[33]
  TGI: > 100 µM
[34]
  TGI: > 100 µM
[35]
  TGI: 73.7 µM
[36]
  TGI: > 100 µM
[37]
  TGI: > 100 µM
[38]
  TGI: > 100 µM
[39]
  TGI: 45.1 µM
[40]
  TGI: > 100 µM
[41]
  TGI: > 100 µM
[42]
  TGI: > 100 µM
[43]
  TGI: > 100 µM
[44]
  TGI: > 100 µM
[45]
  TGI: 72.3 µM
[46]
  TGI: > 100 µM
[47]
  TGI: > 100 µM
[48]
  TGI: > 100 µM
[49]
  TGI: > 100 µM
[50]
  TGI: > 100 µM
[51]
  TGI: > 100 µM
[52]
  TGI: > 100 µM

## COC(=O)C1=C(O)C(C(=O)OC)[C@]2(O)[C@@H](C(=O)OC)[C@H]1[C@H](C)[C@@H](c1ccccc1)[C@@H]2C(=O)OC (some centres undefined)
[1]
  TGI: > 100 µM
[3]
  TGI: > 100 µM
[53]
  TGI: > 100 µM
[4]
  TGI: > 100 µM
[5]
  TGI: > 100 µM
[6]
  TGI: 70.7 µM
[7]
  TGI: > 100 µM
[8]
  TGI: > 100 µM
[9]
  TGI: > 100 µM
[11]
  TGI: > 100 µM
[12]
  TGI: > 100 µM
[54]
  TGI: 62.3 µM
[13]
  TGI: > 100 µM
[15]
  TGI: > 100 µM
[16]
  TGI: 93.5 µM
[17]
  TGI: > 100 µM
[18]
  TGI: > 100 µM
[19]
  TGI: > 100 µM
[20]
  TGI: > 100 µM
[21]
  TGI: > 100 µM
[23]
  TGI: > 100 µM
[24]
  TGI: > 100 µM
[25]
  TGI: > 100 µM
[26]
  TGI: > 100 µM
[27]
  TGI: > 100 µM
[28]
  TGI: > 100 µM
[55]
  TGI: > 100 µM
[56]
  TGI: 47.1 µM
[29]
  TGI: > 100 µM
[30]
  TGI: > 100 µM
[31]
  TGI: > 100 µM
[32]
  TGI: > 100 µM
[33]
  TGI: > 100 µM
[34]
  TGI: > 100 µM
[36]
  TGI: > 100 µM
[37]
  TGI: > 100 µM
[38]
  TGI: > 100 µM
[39]
  TGI: > 100 µM
[40]
  TGI: > 100 µM
[41]
  TGI: > 100 µM
[42]
  TGI: > 100 µM
[43]
  TGI: > 100 µM
[44]
  TGI: > 100 µM
[57]
  TGI: > 100 µM
[45]
  TGI: > 100 µM
[47]
  TGI: > 100 µM
[48]
  TGI: > 100 µM
[49]
  TGI: > 100 µM
[50]
  TGI: > 100 µM
[51]
  TGI: > 100 µM
[52]
  TGI: > 100 µM

## O=C(O)c1cccc(SSc2cccc(C(=O)O)c2)c1
[1]
  TGI: > 100 µM
[2]
  TGI: > 100 µM
[3]
  TGI: > 100 µM
[53]
  TGI: > 100 µM
[4]
  TGI: > 100 µM
[5]
  TGI: > 100 µM
[6]
  TGI: 81 µM
[7]
  TGI: > 100 µM
[8]
  TGI: > 100 µM
[9]
  TGI: > 100 µM
[11]
  TGI: > 100 µM
[12]
  TGI: > 100 µM
[54]
  TGI: > 100 µM
[13]
  TGI: > 100 µM
[14]
  TGI: > 100 µM
[15]
  TGI: > 100 µM
[16]
  TGI: > 100 µM
[17]
  TGI: > 100 µM
[18]
  TGI: > 100 µM
[19]
  TGI: > 100 µM
[20]
  TGI: > 100 µM
[21]
  TGI: > 100 µM
[23]
  TGI: > 100 µM
[24]
  TGI: > 100 µM
[25]
  TGI: > 100 µM
[26]
  TGI: > 100 µM
[27]
  TGI: > 100 µM
[28]
  TGI: > 100 µM
[55]
  TGI: > 100 µM
[56]
  TGI: > 100 µM
[29]
  TGI: > 100 µM
[30]
  TGI: > 100 µM
[31]
  TGI: > 100 µM
[32]
  TGI: > 100 µM
[33]
  TGI: > 100 µM
[34]
  TGI: > 100 µM
[35]
  TGI: > 100 µM
[36]
  TGI: > 100 µM
[37]
  TGI: > 100 µM
[38]
  TGI: > 100 µM
[39]
  TGI: > 100 µM
[40]
  TGI: > 100 µM
[41]
  TGI: > 100 µM
[42]
  TGI: > 100 µM
[43]
  TGI: > 100 µM
[44]
  TGI: > 100 µM
[57]
  TGI: > 100 µM
[45]
  TGI: > 100 µM
[46]
  TGI: > 100 µM
[47]
  TGI: > 100 µM
[48]
  TGI: > 100 µM
[49]
  TGI: > 100 µM
[50]
  TGI: > 100 µM
[51]
  TGI: > 100 µM
[52]
  TGI: > 100 µM
[58]
  TGI: > 100 µM

## COC(=O)[C@]1(c2cc3ccccc3[nH]2)CC2CN(C(=O)OCc3ccccc3)C1C=C2OC (some centres undefined)
[1]
  TGI: > 100 µM
[3]
  TGI: > 100 µM
[53]
  TGI: 74.3 µM
[4]
  TGI: 82.3 µM
[5]
  TGI: > 100 µM
[6]
  TGI: 69.3 µM
[7]
  TGI: 38 µM
[8]
  TGI: > 100 µM
[9]
  TGI: > 100 µM
[10]
  TGI: 46.8 µM
[11]
  TGI: > 100 µM
[12]
  TGI: > 100 µM
[54]
  TGI: 43.7 µM
[13]
  TGI: > 100 µM
[14]
  TGI: 80.6 µM
[15]
  TGI: 63.6 µM
[16]
  TGI: > 100 µM
[17]
  TGI: > 100 µM
[18]
  TGI: > 100 µM
[19]
  TGI: > 100 µM
[20]
  TGI: 47 µM
[21]
  TGI: 66.4 µM
[22]
  TGI: 58.5 µM
[23]
  TGI: 56.9 µM
[24]
  TGI: 55.3 µM
[25]
  TGI: > 100 µM
[26]
  TGI: 64.4 µM
[27]
  TGI: 55 µM
[28]
  TGI: > 100 µM
[55]
  TGI: > 100 µM
[56]
  TGI: 91.3 µM
[29]
  TGI: > 100 µM
[30]
  TGI: 91.4 µM
[31]
  TGI: 98.8 µM
[32]
  TGI: 44.2 µM
[33]
  TGI: > 100 µM
[34]
  TGI: > 100 µM
[35]
  TGI: 72.1 µM
[36]
  TGI: 57.6 µM
[37]
  TGI: > 100 µM
[38]
  TGI: > 100 µM
[39]
  TGI: 55.2 µM
[40]
  TGI: 44 µM
[41]
  TGI: > 100 µM
[43]
  TGI: > 100 µM
[44]
  TGI: > 100 µM
[57]
  TGI: > 100 µM
[45]
  TGI: 71.2 µM
[47]
  TGI: > 100 µM
[48]
  TGI: > 100 µM
[49]
  TGI: > 100 µM
[50]
  TGI: > 100 µM
[51]
  TGI: 49.9 µM
[52]
  TGI: 36.7 µM

## CC(C)(Br)C(Br)CCC1(C(Br)CBr)CO1 (centres undefined)
[1]
  TGI: > 10 µM
[2]
  TGI: > 10 µM
[3]
  TGI: > 10 µM
[53]
  TGI: > 10 µM
[4]
  TGI: > 10 µM
[5]
  TGI: > 10 µM
[6]
  TGI: > 10 µM
[7]
  TGI: > 10 µM
[8]
  TGI: > 10 µM
[9]
  TGI: > 10 µM
[10]
  TGI: > 10 µM
[11]
  TGI: > 10 µM
[54]
  TGI: > 10 µM
[13]
  TGI: > 10 µM
[14]
  TGI: > 10 µM
[15]
  TGI: > 10 µM
[16]
  TGI: > 10 µM
[17]
  TGI: > 10 µM
[18]
  TGI: > 10 µM
[20]
  TGI: > 10 µM
[22]
  TGI: > 10 µM
[23]
  TGI: > 10 µM
[24]
  TGI: > 10 µM
[25]
  TGI: > 10 µM
[26]
  TGI: > 10 µM
[27]
  TGI: > 10 µM
[28]
  TGI: > 10 µM
[56]
  TGI: > 10 µM
[30]
  TGI: > 10 µM
[31]
  TGI: > 10 µM
[32]
  TGI: > 10 µM
[33]
  TGI: > 10 µM
[34]
  TGI: > 10 µM
[35]
  TGI: > 10 µM
[36]
  TGI: > 10 µM
[37]
  TGI: > 10 µM
[38]
  TGI: > 10 µM
[39]
  TGI: > 10 µM
[41]
  TGI: > 10 µM
[42]
  TGI: > 10 µM
[43]
  TGI: > 10 µM
[44]
  TGI: > 10 µM
[57]
  TGI: > 10 µM
[45]
  TGI: > 10 µM
[46]
  TGI: > 10 µM
[47]
  TGI: > 10 µM
[48]
  TGI: > 10 µM
[49]
  TGI: > 10 µM
[50]
  TGI: > 10 µM
[52]
  TGI: > 10 µM
[58]
  TGI: > 10 µM
